Columns and labels:
[1] = tested on: neutrophils, hepatocytes, hERG; assay: Pilot in vitro ADME assay (neutrophils, hepatocytes, hERG); details: at up to 100 µM
[2] = tested on: CD11b+ macrophages in injured arteries; assay: Flow cytometric quantitation of arterial macrophages in injured arteries; format: in vivo, rat; details: 7 days after balloon injury; LA1 1 mg/kg/d; ED7 1 and 3.3 mg/kg/d
Experimental: Agonist treated and control balloon-injured Fisher 344 rats were sacrificed 7 days post surgery at the onset of inflammation. The injured and non-injured iliac arteries were microdissected and digested with Collagenase/Elastase mix (Worthington Biochemical, NY) in DMEM containing 2% FBS for 2 hours at 37° C. The resulting single cell suspension was washed with cold PBS containing 2% FBS and filtered through […] sieve. Cells were re-suspended cold PBS containing 2% FBS at a concentration of 10^6 cells per 100 μl and stained with biotinylated anti-rat CD11b antibody (clone WT.5, BD Biosciences) for 1 hour at 4° C. […] Cells were washed twice with the assay buffer and analyzed using FACS II Canto cytometer and the data were analyzed using FlowJo (Tree Star Inc.) software. […]
Next, to determine whether either type of agonist (chemical LA1 and biologic activating antibody) has a therapeutic advantage over the other, a head-to-head comparison was performed using this in vivo model. […] Next, the arteries were analyzed to quantify the number of infiltrated macrophages in the presence of agonists LA1 or ED7 and compared it to vehicle treated animals. The arteries were harvested from animals 7 days after balloon injury and single cell suspensions were analyzed by flow cytometry (using anti-rat CD11b antibody WT.5) to quantitate CD11b+ macrophages in each sample. […]

CD11b/CD18 = CD11b/CD18 (Homo sapiens, UniProt P11215); assay: Flow cytometry with conformation reporter mAbs KIM127 and 24 on K562 WT cells; format: cell-based; set-up: K562 cells stably transfected with plasmid encoding wild-type integrin CD11b/CD18; expressed in transfected cells; details: LA1 15 uM, Mn2+ 1 mM; vs basal
Experimental: Flow cytometric analyses of K562 WT cells were performed according to published protocols. Briefly, cells were suspended in the assay buffer (Tris-buffered saline (TBS) containing 1 mM of ions Ca2+ and/or Mg2+ and 0.1% BSA). Cells ([…]) were incubated with primary mAb (1:100 dilution of IB4 ascites or the isotype controls, 1:50 […] and 24 and the relevant isotype controls, where incubations were performed at 37 °C) for 30 minutes. Subsequently, the cells were washed three times with the assay buffer and incubated with goat anti-mouse-APC (1 µg/ml, Invitrogen) for 20 minutes at 4° C. Cells were washed twice with the assay buffer and analyzed using FACSCaliber flow cytometer (BD Biosciences, CA), counting at least 10,000 events. Data was analyzed using the CellQuest software (BD Biosciences). Data shown is from one of at least three independent experiments.
Ligand binding induces extension of the integrin heterodimer and large, global conformational changes leading to outside-in signaling. Binding of activating antibodies also induces global conformational changes in the integrin heterodimer and such large conformational changes mimic those induced upon ligand binding. […] Thus, mAb KIM127 is often used as a reporter for the extended conformation of P2 integrins. […]

## O=C(O)c1ccc(-c2ccc(/C=C3\SC(=S)N(Cc4ccccc4)C3=O)o2)cc1 [LA1]
[1]
  adverse findings in pilot in vitro ADME assay: no adverse findings
[2]
  CD11b+ macrophages in injured arteries vs vehicle: significantly less CD11b/CD18 macrophages
CD11b/CD18
  binding of conformation reporter KIM127: very small increase
  binding of conformation reporter mAb 24: small increase

From patent publication US10239871B2, “Compounds and methods for regulating integrins” (ADHAERE PHARMACEUTICALS, INC., priority 2012, dated 2019)
